In patent US8829014B2, “Thiazole and thiophene analogues, and their use in treating autoimmune diseases and cancers” (Board of Supervisors of Louisiana State University and …, priority 2006, dated 2014):

Legend:
NF-κB = assay: TNF-α-induced NF-κB-dependent luciferase expression in HEK cells; format: cell-based; settings: luciferase in HEK/NF-κB cells, as described in Example 398; for inhibition at 1 µM: Homo sapiens, HEK293, 1 uM, read-out: NFkB inhibition @ 1 uM
carageenan-induced edema = assay: Carrageenan-induced rat paw edema test (anti-inflammatory activity); format: in vivo, Sprague-Dawley rats; settings: rat paw edema, 50 mg/kg, reading 3 hours after carrageenan, [(Control−Test)/Control]×100%; for inhibition in vivo at 50 mg/kg: Rattus norvegicus, po, 3 h, read-out: % Protection P
Summary of the method: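 Edema was raised by sub-plantar injection of 1% carrageenan into the right hind paw, 1 h after dosing 18 h-fasted male/female Sprague-Dawley rats (150-250 g) with 50 mg/kg p.o. in 0.1% CMC. Swelling was measured by displacement 3 h later and expressed as % protection against saline control.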

AP-1 = assay: PMA-induced AP-1 luciferase expression in HEK cells; format: cell-based; settings: luciferase in HEK/AP-1 cells, as described in Example 398; for inhibition at 1 µM: AP1, 1 uM

CC(=O)Nc1ccc(-c2cc(C(=O)c3ccccc3)sc2N2CCOCC2)cc1 [Example 66, N-[4-(5-Benzoyl-2-morpholin-4yl-thiophene-3-yl)-phenyl]-acetamide]
inhibition at 1 µM (NF-κB): 24.2% | inhibition in vivo at 50 mg/kg (carageenan-induced edema): 40% | inhibition at 1 µM (AP-1): -2.98%

O=C(c1ccc(Cl)cc1Cl)c1sc(N2CCN(C(=O)c3ccco3)CC2)nc1-c1ccco1 [Example 374, (2,4-Dichloro-phenyl)-{2-[4-(furan-2-carbonyl)-piperazin-1-yl]-4-furan-2-yl-thiazol-5-yl}-methanone]
inhibition at 1 µM (NF-κB): 6.25% | inhibition in vivo at 50 mg/kg (carageenan-induced edema): 62.6% | inhibition at 1 µM (AP-1): 46.2%

O=C(c1ccncc1)c1sc(N2CCN(C(=O)c3ccco3)CC2)nc1-c1ccco1 [Example 377, {2-[4-(Furan-2-carbonyl)-piperazin-1-yl]-4-furan-2-yl-thiazol-5-yl}-pyridin-4-yl-methanone]
inhibition at 1 µM (NF-κB): -7.88% | inhibition in vivo at 50 mg/kg (carageenan-induced edema): 32% | inhibition at 1 µM (AP-1): 4.84%

2-[4-(4-Methylsulfanyl-phenyl)-5-morpholin-4-yl-thiophen-2-yl]-3-phenyl-3H-quinazolin-4-one [Example 276]
NFkB inhibition @ 1 uM (NF-κB; 1 uM): −10 | % Protection P (carageenan-induced edema): 49% | AP-1 inhibition @ 1 uM (AP-1; 1 uM): −17

O=C(c1ccc(Cl)cc1Cl)c1sc(N2CCN(C(=O)c3ccco3)CC2)nc1-c1ccccc1 [Example 384, (2,4-Dichloro-phenyl)-{2-[4-(furan-2-carbonyl)-piperazin-1-yl]-4-phenyl-thiazol-5-yl}-methanone]
inhibition at 1 µM (NF-κB): -1.4% | inhibition in vivo at 50 mg/kg (carageenan-induced edema): 71.6% | inhibition at 1 µM (AP-1): 42.5%

O=c1c2ccccc2nc(-c2cc(-c3ccccc3)c(N3CCOCC3)s2)n1-c1ccccc1 [Example 272, 2-(5-Morpholin-4-yl-4-phenyl-thiophene-2-yl)-3-phenyl-3H-quinazolin-4-one]
inhibition at 1 µM (NF-κB): -2% | inhibition in vivo at 50 mg/kg (carageenan-induced edema): 30% | inhibition at 1 µM (AP-1): 11%

COc1ccc(C(=O)c2cc(-c3ccccc3)c(N3CCOCC3)s2)cc1 [Example 44, (4-Methoxy-phenyl)-(5-morpholin-4-yl-4-phenyl-thiophene-2-yl)-methanone]
inhibition at 1 µM (NF-κB): 14.9% | inhibition in vivo at 50 mg/kg (carageenan-induced edema): 66.7% | inhibition at 1 µM (AP-1): 55.4%

CC(=O)Nc1ccc(-c2cc(C(=O)c3ccncc3)sc2N2CCOCC2)cc1 [Example 75, N-{4-[2-Morpholin-4-yl-5-(pyridine-4-carbonyl)-thiophene-3-yl]-phenyl}-acetamide]
inhibition at 1 µM (NF-κB): 17.4% | inhibition in vivo at 50 mg/kg (carageenan-induced edema): 45.7% | inhibition at 1 µM (AP-1): 45.5%

CC(=O)c1ccc(-c2cc(-c3nc4ccccc4c(=O)n3-c3ccc(Cl)cc3)sc2N2CCOCC2)cc1 [Example 315, 2-[4-(4-Acetyl-phenyl)-5-morpholin-4-yl-thiophene-2-yl]-3-(4-chloro-phenyl)-3H-quinazolin-4-one]
inhibition at 1 µM (NF-κB): 0% | inhibition in vivo at 50 mg/kg (carageenan-induced edema): 51% | inhibition at 1 µM (AP-1): 7%

O=C(CCl)Nc1ccccc1C(=O)O [Example 139, 2-(2-Chloroacetylamino) benzoic acid]
inhibition at 1 µM (NF-κB): 62.6% | inhibition in vivo at 50 mg/kg (carageenan-induced edema): 69.6% | inhibition at 1 µM (AP-1): 74.4%

CS(=O)(=O)c1ccc(C(=O)c2cc(-c3cccnc3)c(N3CCOCC3)s2)cc1 [Example 96, (4-Methylsulfonyl-phenyl)-(5-morpholin-4-yl-4-pyridin-3-yl-thiophen-2-yl)-methanone]
inhibition at 1 µM (NF-κB): -12.9% | inhibition in vivo at 50 mg/kg (carageenan-induced edema): 46.8% | inhibition at 1 µM (AP-1): 37.7%

O=C(c1ccccn1)c1sc(N2CCN(C(=O)c3ccco3)CC2)nc1-c1ccccc1 [Example 390, {2-[4-(Furan-2-carbonyl)-piperazin-1-yl]-4-phenyl-thiazol-5-yl}-pyridin-2-yl-methanone]
inhibition at 1 µM (NF-κB): 0.47% | inhibition in vivo at 50 mg/kg (carageenan-induced edema): 17% | inhibition at 1 µM (AP-1): 40.9%

COc1c(C)cnc(-c2sc(N3CCN(C(=O)c4ccco4)CC3)nc2-c2ccco2)c1C [Example 378, Furan-2-yl-{4-[4-furan-2-yl-5-(4-methoxy-3,5-dimethyl-pyridin-2-yl)-thiazol-2-yl]-piperazin-1-yl}-methanone]
inhibition at 1 µM (NF-κB): 22.1% | inhibition in vivo at 50 mg/kg (carageenan-induced edema): 84.2% | inhibition at 1 µM (AP-1): 43.3%
